Source: patent US20070117770A1, “Human ribosomal DNA (rDNA) and ribosomal RNA (rRNA) nucleic acids and uses thereof” (Cylene Pharmaceuticals, Inc., priority 2005, published 2007)

What was measured:
Assay in all cases: Protein kinase inhibition assay
Assay type in all cases: biochemical
CK1γ3(h) = CK1γ3(h) (Homo sapiens, UniProt Q9Y6M4); conditions: read-out: percent residual activity of CK1γ3(h)
Method: (§1) Certain compounds were tested for activity in protein kinase inhibition assays. All substrates were dissolved and diluted to working stocks in de-ionized water, apart from histone H1 (10× working stock in 20 mM MOPS pH 7.0), PDKtide (10× working stock in 50 mM Tris pH 7.0) ATF2 (which is typically stored at a 20× working stock in 50 mM Tris pH 7.5, 150 mM NaCl, 0.1 mM EGTA, 0.03% Brij-35, 50% glycerol, 1 mM benzamidine, 0.2 mM PMSF and 0.1% R-mercaptoethanol), KKLNRTLSFAEPG (SEQ ID NO:203) and RRRLSFAEPG (SEQ ID NO:204) (50 mM HEPES pH 7.4) and GGEEEEYFELVKKKK (SEQ ID NO:205) (20 mM MOPS pH 7.0). All kinases were pre-diluted to a 10× working concentration prior to addition into the assay. The composition of the dilution buffer for each kinase is detailed below.

CaMKIIβ(h) = CaMKIIβ(h) (Homo sapiens, UniProt Q13554); conditions: read-out: percent residual activity of CaMKIIβ(h)
Method: as §1

DAPK1(h) = DAPK1(h) (Homo sapiens, UniProt P53355); conditions: read-out: percent residual activity of DAPK1(h)
Method: as §1

DAPK2(h) = DAPK2(h) (Homo sapiens, UniProt Q9UIK4); conditions: read-out: percent residual activity of DAPK2(h)
Method: as §1

DRAK1(h) = biological target: T1, DRAK1(h) (Homo sapiens, UniProt Q9UEE5); conditions: for remaining activity at 2.5 µM: read-out: percent residual activity of DRAK1(h)
T1 sequence (Q9UEE5 1-414): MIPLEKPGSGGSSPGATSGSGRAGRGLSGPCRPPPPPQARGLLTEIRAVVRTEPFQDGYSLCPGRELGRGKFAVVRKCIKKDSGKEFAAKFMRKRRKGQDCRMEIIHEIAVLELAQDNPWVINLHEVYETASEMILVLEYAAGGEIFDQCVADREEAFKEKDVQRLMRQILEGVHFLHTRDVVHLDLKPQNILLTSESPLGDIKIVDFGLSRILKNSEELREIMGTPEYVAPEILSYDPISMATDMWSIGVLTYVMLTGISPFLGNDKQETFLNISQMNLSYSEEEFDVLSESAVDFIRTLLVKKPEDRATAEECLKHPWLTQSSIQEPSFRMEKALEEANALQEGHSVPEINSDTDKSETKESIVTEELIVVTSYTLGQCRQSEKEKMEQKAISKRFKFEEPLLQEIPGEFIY
Method: as §1

EGFR(T790M)(h) = EGFR(T790M)(h) (Homo sapiens, UniProt P00533, T790M); conditions: read-out: percent residual activity of EGFR(T790M)(h)
Method: as §1

FAK(h) = FAK(h) (Homo sapiens, UniProt Q05397); conditions: read-out: percent residual activity of FAK(h)
Method: as §1

Flt4(h) = Flt4(h) (Homo sapiens, UniProt P35916); conditions: read-out: percent residual activity of Flt4(h)
Method: as §1

HIPK1(h) = HIPK1(h) (Homo sapiens, UniProt Q86Z02); conditions: read-out: percent residual activity of HIPK1(h)
Method: as §1

Itk(h) = Itk(h) (Homo sapiens, UniProt Q08881); conditions: read-out: percent residual activity of Itk(h)
Method: as §1

LKB1(h) = LKB1(h) (Homo sapiens, UniProt Q15831); conditions: read-out: percent residual activity of LKB1(h)
Method: as §1

MRCKα(h) = MRCKα(h) (Homo sapiens, UniProt Q5VT25); conditions: read-out: percent residual activity of MRCKα(h)
Method: as §1

MST3(h) = MST3(h) (Homo sapiens, UniProt Q9Y6E0); conditions: read-out: percent residual activity of MST3(h)
Method: as §1

Mnk2(h) = Mnk2(h) (Homo sapiens, UniProt Q9HBH9); conditions: read-out: percent residual activity of Mnk2(h)
Method: as §1

NEK3(h) = NEK3(h) (Homo sapiens, UniProt P51956); conditions: read-out: percent residual activity of NEK3(h)
Method: as §1

NLK (h) = NLK (h) (Homo sapiens, UniProt Q9UBE8); conditions: read-out: percent residual activity of NLK (h)
Method: as §1

PAK3(h) = PAK3(h) (Homo sapiens, UniProt O75914); conditions: read-out: percent residual activity of PAK3(h)
Method: as §1

PhKγ2(h) = PhKγ2(h) (Homo sapiens, UniProt P15735); conditions: read-out: percent residual activity of PhKγ2(h)
Method: as §1

PrKX(h) = PrKX(h) (Homo sapiens, UniProt P51817); conditions: read-out: percent residual activity of PrKX(h)
Method: as §1

SRPK1(h) = SRPK1(h) (Homo sapiens, UniProt Q96SB4); conditions: read-out: percent residual activity of SRPK1(h)
Method: as §1

STK33(h) = STK33(h) (Homo sapiens, UniProt Q9BYT3); conditions: read-out: percent residual activity of STK33(h)
Method: as §1

TSSK1(h) = TSSK1(h) (Homo sapiens, UniProt Q9BXA7); conditions: read-out: percent residual activity of TSSK1(h)
Method: as §1

WNK2(h) = WNK2(h) (Homo sapiens, UniProt Q9Y3S1); conditions: read-out: percent residual activity of WNK2(h)
Method: as §1

cKit(D816H)(h) = cKit(D816H)(h) (Homo sapiens, UniProt P10721, D816H); conditions: read-out: percent residual activity of cKit(D816H)(h)
Method: as §1

SRPK1(h), sequence (Q96SB4 whole entry): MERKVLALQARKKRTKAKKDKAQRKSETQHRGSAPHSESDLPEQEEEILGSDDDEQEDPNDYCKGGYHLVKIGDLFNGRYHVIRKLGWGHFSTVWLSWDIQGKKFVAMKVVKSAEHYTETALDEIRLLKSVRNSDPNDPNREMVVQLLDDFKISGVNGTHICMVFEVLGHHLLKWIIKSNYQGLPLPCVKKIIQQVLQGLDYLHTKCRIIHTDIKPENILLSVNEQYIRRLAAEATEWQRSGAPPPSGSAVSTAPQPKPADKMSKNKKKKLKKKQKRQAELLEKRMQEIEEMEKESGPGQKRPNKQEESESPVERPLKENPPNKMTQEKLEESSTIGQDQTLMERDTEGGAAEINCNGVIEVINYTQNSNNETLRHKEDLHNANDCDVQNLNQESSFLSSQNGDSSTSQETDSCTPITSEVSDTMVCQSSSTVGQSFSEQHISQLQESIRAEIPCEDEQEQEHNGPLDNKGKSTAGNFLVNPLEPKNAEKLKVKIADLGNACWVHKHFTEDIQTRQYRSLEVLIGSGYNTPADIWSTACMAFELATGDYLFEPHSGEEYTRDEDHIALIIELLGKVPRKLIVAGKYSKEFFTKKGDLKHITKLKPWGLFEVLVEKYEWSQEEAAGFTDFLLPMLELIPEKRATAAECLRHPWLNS
PhKγ2(h), sequence (P15735 whole entry): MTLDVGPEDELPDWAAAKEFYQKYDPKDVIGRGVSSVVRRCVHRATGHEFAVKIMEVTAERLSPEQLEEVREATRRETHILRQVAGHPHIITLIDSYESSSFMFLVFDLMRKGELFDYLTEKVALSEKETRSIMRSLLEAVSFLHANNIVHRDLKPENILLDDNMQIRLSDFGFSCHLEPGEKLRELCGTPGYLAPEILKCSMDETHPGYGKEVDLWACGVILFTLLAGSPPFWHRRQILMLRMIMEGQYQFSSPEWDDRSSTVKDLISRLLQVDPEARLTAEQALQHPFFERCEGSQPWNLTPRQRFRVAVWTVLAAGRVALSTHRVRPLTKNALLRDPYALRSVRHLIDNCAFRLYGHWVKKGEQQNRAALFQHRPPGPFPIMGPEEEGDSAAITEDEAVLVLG
Itk(h), sequence (Q08881 whole entry): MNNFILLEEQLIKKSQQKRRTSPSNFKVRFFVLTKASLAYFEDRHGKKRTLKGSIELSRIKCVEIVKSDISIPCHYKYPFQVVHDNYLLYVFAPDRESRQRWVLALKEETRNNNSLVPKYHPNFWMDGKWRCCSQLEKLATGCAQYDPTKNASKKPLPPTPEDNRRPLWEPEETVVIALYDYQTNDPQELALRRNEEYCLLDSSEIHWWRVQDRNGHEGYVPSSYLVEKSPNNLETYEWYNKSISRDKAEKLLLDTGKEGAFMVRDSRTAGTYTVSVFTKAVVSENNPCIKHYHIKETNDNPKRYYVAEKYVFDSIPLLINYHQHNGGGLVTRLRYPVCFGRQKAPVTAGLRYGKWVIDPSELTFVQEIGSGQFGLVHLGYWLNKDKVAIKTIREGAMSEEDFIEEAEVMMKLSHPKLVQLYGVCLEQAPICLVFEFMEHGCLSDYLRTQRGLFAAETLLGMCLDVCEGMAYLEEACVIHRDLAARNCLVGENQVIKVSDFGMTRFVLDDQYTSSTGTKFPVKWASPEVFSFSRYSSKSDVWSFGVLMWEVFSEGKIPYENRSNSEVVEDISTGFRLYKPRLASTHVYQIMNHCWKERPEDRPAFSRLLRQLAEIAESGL
MST3(h), sequence (Q9Y6E0 whole entry): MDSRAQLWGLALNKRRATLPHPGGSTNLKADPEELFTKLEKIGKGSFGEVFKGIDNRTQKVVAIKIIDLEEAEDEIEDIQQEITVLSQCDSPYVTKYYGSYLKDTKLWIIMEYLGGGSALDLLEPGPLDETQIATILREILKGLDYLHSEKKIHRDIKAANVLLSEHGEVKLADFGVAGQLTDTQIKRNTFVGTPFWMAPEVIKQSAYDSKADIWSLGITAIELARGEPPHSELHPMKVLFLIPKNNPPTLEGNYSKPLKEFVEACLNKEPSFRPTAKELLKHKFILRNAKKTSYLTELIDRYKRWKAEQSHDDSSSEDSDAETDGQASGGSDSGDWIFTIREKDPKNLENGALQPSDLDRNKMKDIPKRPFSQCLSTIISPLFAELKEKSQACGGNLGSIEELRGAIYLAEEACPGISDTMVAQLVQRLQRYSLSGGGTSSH
NLK (h), sequence (Q9UBE8 whole entry): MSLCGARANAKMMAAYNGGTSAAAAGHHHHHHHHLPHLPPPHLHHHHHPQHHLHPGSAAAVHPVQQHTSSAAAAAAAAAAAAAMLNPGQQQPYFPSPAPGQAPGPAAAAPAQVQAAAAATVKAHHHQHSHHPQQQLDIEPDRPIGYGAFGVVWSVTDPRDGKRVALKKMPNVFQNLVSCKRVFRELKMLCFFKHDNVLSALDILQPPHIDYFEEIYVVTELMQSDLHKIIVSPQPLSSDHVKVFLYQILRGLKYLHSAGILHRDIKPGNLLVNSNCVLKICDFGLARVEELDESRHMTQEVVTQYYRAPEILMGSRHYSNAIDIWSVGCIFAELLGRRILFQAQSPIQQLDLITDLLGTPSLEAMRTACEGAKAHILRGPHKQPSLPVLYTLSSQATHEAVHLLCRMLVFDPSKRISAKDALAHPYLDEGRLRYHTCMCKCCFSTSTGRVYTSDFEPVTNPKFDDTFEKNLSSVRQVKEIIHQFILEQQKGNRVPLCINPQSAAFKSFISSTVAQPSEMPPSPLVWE
PrKX(h), sequence (P51817 whole entry): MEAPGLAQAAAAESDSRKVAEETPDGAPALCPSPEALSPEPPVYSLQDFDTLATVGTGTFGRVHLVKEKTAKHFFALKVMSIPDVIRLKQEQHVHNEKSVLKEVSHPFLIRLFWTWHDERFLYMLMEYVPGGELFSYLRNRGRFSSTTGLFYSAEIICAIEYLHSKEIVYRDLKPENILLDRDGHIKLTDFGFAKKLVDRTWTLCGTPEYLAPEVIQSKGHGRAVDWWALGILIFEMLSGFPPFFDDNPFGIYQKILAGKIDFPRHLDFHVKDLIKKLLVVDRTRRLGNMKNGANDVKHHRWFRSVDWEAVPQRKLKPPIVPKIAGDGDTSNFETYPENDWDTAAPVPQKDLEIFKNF
STK33(h), sequence (Q9BYT3 whole entry): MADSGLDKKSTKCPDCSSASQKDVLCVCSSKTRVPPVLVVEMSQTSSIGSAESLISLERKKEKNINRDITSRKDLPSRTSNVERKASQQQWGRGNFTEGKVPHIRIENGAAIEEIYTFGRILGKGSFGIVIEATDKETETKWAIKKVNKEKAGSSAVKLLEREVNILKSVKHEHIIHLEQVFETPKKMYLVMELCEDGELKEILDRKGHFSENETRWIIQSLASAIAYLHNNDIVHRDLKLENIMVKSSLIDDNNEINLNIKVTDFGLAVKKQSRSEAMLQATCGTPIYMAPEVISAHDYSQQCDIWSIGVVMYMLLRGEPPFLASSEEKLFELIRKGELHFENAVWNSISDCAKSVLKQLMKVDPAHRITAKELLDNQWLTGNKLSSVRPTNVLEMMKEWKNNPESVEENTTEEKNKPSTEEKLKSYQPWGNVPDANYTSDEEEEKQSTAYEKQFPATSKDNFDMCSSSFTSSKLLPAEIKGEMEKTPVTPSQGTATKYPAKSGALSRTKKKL
NEK3(h), sequence (P51956 whole entry): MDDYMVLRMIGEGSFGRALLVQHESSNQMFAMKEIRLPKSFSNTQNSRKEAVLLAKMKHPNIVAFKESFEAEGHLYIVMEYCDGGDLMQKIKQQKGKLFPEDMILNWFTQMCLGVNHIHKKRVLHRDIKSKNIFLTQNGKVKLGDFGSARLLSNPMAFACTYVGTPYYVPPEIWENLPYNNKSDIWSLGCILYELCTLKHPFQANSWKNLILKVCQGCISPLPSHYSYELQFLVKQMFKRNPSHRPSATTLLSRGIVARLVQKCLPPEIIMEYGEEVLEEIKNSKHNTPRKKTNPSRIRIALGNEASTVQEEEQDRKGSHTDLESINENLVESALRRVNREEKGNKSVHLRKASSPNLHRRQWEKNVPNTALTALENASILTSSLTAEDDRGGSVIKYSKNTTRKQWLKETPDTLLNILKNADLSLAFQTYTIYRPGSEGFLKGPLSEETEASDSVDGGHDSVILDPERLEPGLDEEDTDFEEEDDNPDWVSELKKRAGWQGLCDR
Mnk2(h), sequence (Q9HBH9 whole entry): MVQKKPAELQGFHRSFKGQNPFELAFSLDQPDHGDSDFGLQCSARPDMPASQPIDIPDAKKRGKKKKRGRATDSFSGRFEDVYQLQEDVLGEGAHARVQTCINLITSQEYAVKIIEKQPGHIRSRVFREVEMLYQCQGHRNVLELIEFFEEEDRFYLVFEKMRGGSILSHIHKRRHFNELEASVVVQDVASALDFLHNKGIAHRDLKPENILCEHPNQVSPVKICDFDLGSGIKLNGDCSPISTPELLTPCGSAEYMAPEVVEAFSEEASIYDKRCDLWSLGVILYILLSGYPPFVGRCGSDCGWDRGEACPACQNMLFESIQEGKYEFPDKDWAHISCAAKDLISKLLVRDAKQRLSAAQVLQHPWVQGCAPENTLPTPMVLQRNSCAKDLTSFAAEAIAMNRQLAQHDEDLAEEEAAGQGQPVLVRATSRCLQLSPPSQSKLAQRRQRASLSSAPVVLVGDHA
CK1γ3(h), sequence (Q9Y6M4 whole entry): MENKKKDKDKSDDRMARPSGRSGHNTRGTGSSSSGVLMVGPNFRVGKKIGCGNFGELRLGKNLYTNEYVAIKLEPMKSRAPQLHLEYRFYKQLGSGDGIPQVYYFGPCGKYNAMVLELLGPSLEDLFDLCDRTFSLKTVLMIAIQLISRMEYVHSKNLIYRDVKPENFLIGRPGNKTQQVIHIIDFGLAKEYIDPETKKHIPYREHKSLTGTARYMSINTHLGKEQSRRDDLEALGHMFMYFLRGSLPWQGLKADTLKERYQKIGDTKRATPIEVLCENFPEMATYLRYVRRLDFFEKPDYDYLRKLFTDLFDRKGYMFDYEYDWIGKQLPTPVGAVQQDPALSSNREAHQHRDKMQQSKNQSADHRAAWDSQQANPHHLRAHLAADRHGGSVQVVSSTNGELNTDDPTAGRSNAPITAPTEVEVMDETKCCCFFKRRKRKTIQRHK

`CN1CCCC1CCNC(=O)c1cn2c3c(c(N4CCC(c5cnccn5)C4)c(F)cc3c1=O)Oc1cc3ccccc3cc1-2` (stereo not shown) [Compound A-1] was tested. Which remaining activity at 2.5 µM (CK1γ3(h)) did it give?
The remaining activity at 2.5 µM was 103%.

And the remaining activity at 2.5 µM (CaMKIIβ(h))?
The remaining activity at 2.5 µM was 101%.

And the remaining activity at 2.5 µM (DAPK1(h))?
The remaining activity at 2.5 µM was 40%.

What about the remaining activity at 2.5 µM (DAPK2(h)) of the same compound?
Its remaining activity at 2.5 µM is 109%.

And the inhibition at 2.5 µM (DRAK1(h))?
The inhibition at 2.5 µM was over 80%.

What about the remaining activity at 2.5 µM (DRAK1(h)) of the same compound?
Its remaining activity at 2.5 µM is 11%.

What about the remaining activity at 2.5 µM (EGFR(T790M)(h)) of the same compound?
Its remaining activity at 2.5 µM is 91%.

What about the remaining activity at 2.5 µM (FAK(h)) of the same compound?
The remaining activity at 2.5 µM was 94%.

What about the remaining activity at 2.5 µM (Flt4(h)) of the same compound?
The remaining activity at 2.5 µM was 70%.

And the remaining activity at 2.5 µM (HIPK1(h))?
The remaining activity at 2.5 µM was 95%.

And the remaining activity at 2.5 µM (Itk(h))?
Its remaining activity at 2.5 µM is 117%.

And the remaining activity at 2.5 µM (LKB1(h))?
Its remaining activity at 2.5 µM is 98%.

And the remaining activity at 2.5 µM (MRCKα(h))?
The remaining activity at 2.5 µM was 85%.

What about the remaining activity at 2.5 µM (MST3(h)) of the same compound?
Its remaining activity at 2.5 µM is 45%.

And the remaining activity at 2.5 µM (Mnk2(h))?
Its remaining activity at 2.5 µM is 98%.

And the remaining activity at 2.5 µM (NEK3(h))?
The remaining activity at 2.5 µM was 94%.

And the remaining activity at 2.5 µM (NLK (h))?
The remaining activity at 2.5 µM was 90%.

What about the remaining activity at 2.5 µM (PAK3(h)) of the same compound?
Its remaining activity at 2.5 µM is 88%.

What about the remaining activity at 2.5 µM (PhKγ2(h)) of the same compound?
Its remaining activity at 2.5 µM is 46%.

And the remaining activity at 2.5 µM (PrKX(h))?
Its remaining activity at 2.5 µM is 75%.

And the remaining activity at 2.5 µM (SRPK1(h))?
Its remaining activity at 2.5 µM is 91%.

What about the remaining activity at 2.5 µM (STK33(h)) of the same compound?
The remaining activity at 2.5 µM was 90%.

What about the remaining activity at 2.5 µM (TSSK1(h)) of the same compound?
The remaining activity at 2.5 µM was 98%.

And the remaining activity at 2.5 µM (WNK2(h))?
Its remaining activity at 2.5 µM is 97%.

And the remaining activity at 2.5 µM (cKit(D816H)(h))?
Its remaining activity at 2.5 µM is 73%.

Which results are given for `CC(=O)N1CCN(c2ccc3c(=O)c(C(=O)NCCN4CCCC4)c4n(C)c5ccccc5n4c3n2)CC1` [Compound B-1]?
remaining activity at 2.5 µM (CK1γ3(h)): 114%; remaining activity at 2.5 µM (CaMKIIβ(h)): 100%; remaining activity at 2.5 µM (DAPK1(h)): 89%; remaining activity at 2.5 µM (DAPK2(h)): 102%; remaining activity at 2.5 µM (DRAK1(h)): 117%; remaining activity at 2.5 µM (EGFR(T790M)(h)): 114%; remaining activity at 2.5 µM (FAK(h)): 102%; remaining activity at 2.5 µM (Flt4(h)): 103%; remaining activity at 2.5 µM (HIPK1(h)): 101%; remaining activity at 2.5 µM (Itk(h)): 102%; remaining activity at 2.5 µM (LKB1(h)): 101%; remaining activity at 2.5 µM (MRCKα(h)): 98%; remaining activity at 2.5 µM (MST3(h)): 110%; remaining activity at 2.5 µM (Mnk2(h)): 115%; remaining activity at 2.5 µM (NEK3(h)): 118%; remaining activity at 2.5 µM (NLK (h)): 109%; remaining activity at 2.5 µM (PAK3(h)): 91%; remaining activity at 2.5 µM (PhKγ2(h)): 118%; remaining activity at 2.5 µM (PrKX(h)): 96%; remaining activity at 2.5 µM (SRPK1(h)): 99%; remaining activity at 2.5 µM (STK33(h)): 102%; remaining activity at 2.5 µM (TSSK1(h)): 107%; remaining activity at 2.5 µM (WNK2(h)): 108%; remaining activity at 2.5 µM (cKit(D816H)(h)): 92%
